These results are taken from ChEMBL document CHEMBL5291721, “A preclinical secondary pharmacology resource illuminates target-adverse drug reaction associations of marketed drugs” (Nat Commun, 2023).

In experiment [1] the target is T1, 5-hydroxytryptamine receptor 2C (Homo sapiens, UniProt P28335).
T1 sequence (P28335 whole entry): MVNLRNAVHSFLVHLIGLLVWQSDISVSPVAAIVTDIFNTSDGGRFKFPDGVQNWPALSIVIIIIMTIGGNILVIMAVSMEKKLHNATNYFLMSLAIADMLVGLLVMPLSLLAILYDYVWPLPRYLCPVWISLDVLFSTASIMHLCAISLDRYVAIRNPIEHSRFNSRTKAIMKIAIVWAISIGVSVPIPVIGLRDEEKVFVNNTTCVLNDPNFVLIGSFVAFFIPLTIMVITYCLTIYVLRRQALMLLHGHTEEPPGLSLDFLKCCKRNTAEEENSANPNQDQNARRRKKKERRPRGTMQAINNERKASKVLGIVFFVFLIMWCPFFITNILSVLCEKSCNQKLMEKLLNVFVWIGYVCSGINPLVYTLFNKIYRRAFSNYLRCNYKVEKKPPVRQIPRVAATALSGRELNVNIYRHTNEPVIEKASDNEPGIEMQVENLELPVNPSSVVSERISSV

The next experiment deals with T2, Endothelin-1 receptor (Homo sapiens, UniProt P25101).
T2 sequence (P25101 whole entry): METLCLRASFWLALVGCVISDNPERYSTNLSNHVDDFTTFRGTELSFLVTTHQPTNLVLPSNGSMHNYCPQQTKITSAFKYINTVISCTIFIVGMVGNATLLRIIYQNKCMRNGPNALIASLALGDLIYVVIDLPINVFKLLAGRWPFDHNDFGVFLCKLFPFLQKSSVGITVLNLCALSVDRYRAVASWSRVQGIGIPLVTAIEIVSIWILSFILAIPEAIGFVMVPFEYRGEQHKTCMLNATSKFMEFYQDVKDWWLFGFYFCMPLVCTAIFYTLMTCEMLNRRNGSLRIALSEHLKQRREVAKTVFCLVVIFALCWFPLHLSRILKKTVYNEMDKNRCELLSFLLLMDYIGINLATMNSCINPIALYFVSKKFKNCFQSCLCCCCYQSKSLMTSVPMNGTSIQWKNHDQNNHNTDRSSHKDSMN

In experiment [2] the target is T3, 5-hydroxytryptamine receptor 1A (Homo sapiens, UniProt P08908).
T3 sequence (P08908 whole entry): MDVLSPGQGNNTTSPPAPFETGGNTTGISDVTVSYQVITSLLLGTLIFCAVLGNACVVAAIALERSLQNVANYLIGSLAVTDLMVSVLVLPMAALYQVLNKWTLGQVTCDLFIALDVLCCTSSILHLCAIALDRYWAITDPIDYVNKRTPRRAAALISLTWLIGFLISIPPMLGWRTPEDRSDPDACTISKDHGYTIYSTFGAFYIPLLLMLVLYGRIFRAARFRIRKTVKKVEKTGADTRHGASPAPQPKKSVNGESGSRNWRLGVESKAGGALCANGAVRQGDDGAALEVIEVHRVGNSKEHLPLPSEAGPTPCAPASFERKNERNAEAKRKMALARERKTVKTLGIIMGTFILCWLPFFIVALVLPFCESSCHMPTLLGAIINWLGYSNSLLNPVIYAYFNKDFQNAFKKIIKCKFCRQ
The experiment is classed as functional, cell-based.

A further experiment deals with D(1A) dopamine receptor (Homo sapiens, UniProt P21728). Type of experiment: functional, cell-based.
For experiment [3], the target named is Beta-1 adrenergic receptor (Homo sapiens, UniProt P08588). Type of experiment: functional.
For the next experiment, the target named is T4, Glucocorticoid receptor (Homo sapiens, UniProt P04150).
T4 sequence (P04150 whole entry): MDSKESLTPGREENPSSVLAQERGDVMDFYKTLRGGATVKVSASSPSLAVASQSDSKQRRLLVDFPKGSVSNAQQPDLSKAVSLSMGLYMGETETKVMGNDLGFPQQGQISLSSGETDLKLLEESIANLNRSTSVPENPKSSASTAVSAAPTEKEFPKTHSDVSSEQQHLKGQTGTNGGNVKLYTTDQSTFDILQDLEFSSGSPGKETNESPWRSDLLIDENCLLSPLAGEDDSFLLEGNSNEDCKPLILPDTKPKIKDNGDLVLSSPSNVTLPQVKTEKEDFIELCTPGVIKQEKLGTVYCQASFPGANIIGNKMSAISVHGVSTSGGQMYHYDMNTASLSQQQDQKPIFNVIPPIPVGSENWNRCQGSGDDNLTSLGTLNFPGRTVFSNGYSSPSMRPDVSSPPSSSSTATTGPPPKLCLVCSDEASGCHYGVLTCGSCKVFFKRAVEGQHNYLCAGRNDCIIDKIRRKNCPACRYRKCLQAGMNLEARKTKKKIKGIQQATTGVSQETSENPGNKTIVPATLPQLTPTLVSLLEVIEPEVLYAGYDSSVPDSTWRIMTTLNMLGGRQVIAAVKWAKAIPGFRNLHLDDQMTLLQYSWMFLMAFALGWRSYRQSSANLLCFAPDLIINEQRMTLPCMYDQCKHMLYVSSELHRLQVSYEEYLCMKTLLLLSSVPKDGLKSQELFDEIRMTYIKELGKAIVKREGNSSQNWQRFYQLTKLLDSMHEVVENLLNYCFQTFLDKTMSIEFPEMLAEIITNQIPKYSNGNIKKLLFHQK
Note: assay procedure not described here.

Sequence of Beta-1 adrenergic receptor (P08588 whole entry): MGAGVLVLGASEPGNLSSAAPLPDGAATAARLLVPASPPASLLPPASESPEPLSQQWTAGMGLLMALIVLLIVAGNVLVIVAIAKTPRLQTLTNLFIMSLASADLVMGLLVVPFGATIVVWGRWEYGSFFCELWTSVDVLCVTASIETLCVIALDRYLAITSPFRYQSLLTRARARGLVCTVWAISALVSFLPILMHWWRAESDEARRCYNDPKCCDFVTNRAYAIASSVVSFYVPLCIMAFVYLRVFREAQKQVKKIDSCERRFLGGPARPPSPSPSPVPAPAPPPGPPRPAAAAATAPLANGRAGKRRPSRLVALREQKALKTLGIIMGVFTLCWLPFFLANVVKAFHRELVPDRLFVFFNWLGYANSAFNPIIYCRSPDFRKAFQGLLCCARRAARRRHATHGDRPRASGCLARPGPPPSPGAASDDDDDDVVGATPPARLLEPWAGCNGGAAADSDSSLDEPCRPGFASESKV
Sequence of D(1A) dopamine receptor (P21728 whole entry): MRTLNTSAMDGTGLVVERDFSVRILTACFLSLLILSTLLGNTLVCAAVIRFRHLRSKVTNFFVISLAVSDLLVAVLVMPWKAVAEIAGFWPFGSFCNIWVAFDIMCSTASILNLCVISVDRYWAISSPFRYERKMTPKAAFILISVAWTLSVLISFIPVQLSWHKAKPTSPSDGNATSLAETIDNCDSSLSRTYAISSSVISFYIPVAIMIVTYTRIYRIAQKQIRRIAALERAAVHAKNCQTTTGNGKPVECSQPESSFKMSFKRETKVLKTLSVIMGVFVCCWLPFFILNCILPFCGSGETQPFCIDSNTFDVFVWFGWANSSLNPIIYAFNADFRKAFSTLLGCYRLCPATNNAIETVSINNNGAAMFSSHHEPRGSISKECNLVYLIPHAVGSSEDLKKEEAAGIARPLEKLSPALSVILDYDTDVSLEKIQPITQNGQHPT

As usually defined, the AC50 is the concentration at which the activity in the assay is half-maximal. Consider `COc1ccc(-c2ccc3cc(C(=O)O)ccc3c2)cc1C12CC3CC(CC(C3)C1)C2`, for which the AC50 (in experiment [1]; on Endothelin-1 receptor; in experiment [2]; on D(1A) dopamine receptor; in experiment [3]) was above 30 µM in each case.

With `COc1ccccc1N1CCN(CCCNc2cc(=O)n(C)c(=O)n2C)CC1`, the AC50 (in experiment [1]; on Endothelin-1 receptor; on D(1A) dopamine receptor) was above 30 µM in each case.

For `CCOC(=O)[C@H](CCc1ccccc1)N[C@@H](C)C(=O)N1C(=O)N(C)C[C@H]1C(=O)O`, the half-maximal activity concentration (AC50) (in experiment [1]; at Endothelin-1 receptor; in experiment [2]; at D(1A) dopamine receptor; in experiment [3]) was above 30 µM in each case.

With `CC=CC(=O)N(CC)c1ccccc1C`, the AC50 in experiment [1] was above 30 µM; at Glucocorticoid receptor, above 10 µM; on D(1A) dopamine receptor it was above 10 µM; in experiment [3], above 10 µM.

`CC(C)(C)C(=O)Oc1ccc(S(=O)(=O)Nc2ccccc2C(=O)NCC(=O)O)cc1`: the half-maximal activity concentration (AC50) (in experiment [1]; at Endothelin-1 receptor; in experiment [2]; at D(1A) dopamine receptor; in experiment [3]) was above 30 µM in each case.

Take `CC(=O)O[C@H]1CC[C@@]2(C)C(=CC[C@@H]3[C@@H]2CC[C@]2(C)C(c4cccnc4)=CC[C@@H]32)C1` [ABIRATERONE ACETATE]: the AC50 (in experiment [1]; at Endothelin-1 receptor; on D(1A) dopamine receptor; in experiment [3]) was above 30 µM each time.

As for `O=C(O)CCCCCCCC(=O)O` [AZELAIC ACID], the AC50 in experiment [1] was above 30 µM; in experiment [2] it was above 10 µM; at D(1A) dopamine receptor, above 30 µM; in experiment [3], above 10 µM.

Consider `CC(C[N+](C)(C)C)OC(N)=O` (centres undefined) [BETHANECHOL], for which the AC50 in experiment [1] was above 30 µM; at Glucocorticoid receptor, above 10 µM; at D(1A) dopamine receptor it was above 10 µM; in experiment [3], above 10 µM.

Consider `CCN1CCN(C(=O)N[C@@H](C(=O)N[C@@H]2C(=O)N3C(C(=O)O)=C(CSc4nnnn4C)CS[C@H]23)c2ccc(O)cc2)C(=O)C1=O` [CEFOPERAZONE], for which the concentration at half-maximal activity (AC50) (in experiment [1]; on Endothelin-1 receptor; in experiment [2]; at D(1A) dopamine receptor; in experiment [3]) was above 30 µM in each case.

Turning to `COc1ccc2c3c1O[C@H]1[C@@H](O)C=C[C@H]4[C@@H](C2)N(C)CC[C@@]341` [CODEINE], the AC50 in experiment [1] was above 30 µM; on Endothelin-1 receptor it was above 30 µM; in experiment [2], above 10 µM; on D(1A) dopamine receptor, above 10 µM; in experiment [3], 0.9 µM.

With `Cn1c(=O)c2c(ncn2CC2OCCO2)n(C)c1=O` [DOXOFYLLINE], the AC50 (in experiment [1]; on Endothelin-1 receptor; in experiment [2]; on D(1A) dopamine receptor; in experiment [3]) was above 30 µM each time.

Consider `Cc1ccc(S(=O)(=O)NC(=O)NN2CC3CCCC3C2)cc1` (centres undefined) [GLICLAZIDE], for which the concentration at half-maximal activity (AC50) in experiment [1] is above 30 µM; in experiment [2] it was above 10 µM; on D(1A) dopamine receptor, above 30 µM; in experiment [3] it was above 10 µM.

Take `CC(C)C(=O)c1c(C(C)C)nn2ccccc12` [IBUDILAST]: the AC50 (in experiment [1]; at Endothelin-1 receptor; on D(1A) dopamine receptor; in experiment [3]) was above 30 µM throughout.

With `CNC(C)CCC=C(C)C` (centres undefined) [ISOMETHEPTENE], the AC50 (on Endothelin-1 receptor; in experiment [3]) was above 30 µM in each case.

In the case of `CC(C)(C)c1cc(C(C)(C)C)c(NC(=O)c2c[nH]c3ccccc3c2=O)cc1O` [IVACAFTOR], the AC50 in experiment [1] was above 30 µM; at Glucocorticoid receptor it was above 30 µM; in experiment [3], above 10 µM.

As to `C[C@](N)(Cc1ccc(O)c(O)c1)C(=O)O` [METHYLDOPA], the AC50 in experiment [1] is above 30 µM; in experiment [2], above 10 µM; on D(1A) dopamine receptor, above 30 µM; in experiment [3] it was above 10 µM.

For the molecule `O=C(NCCN1CCOCC1)c1ccc(Cl)cc1` [MOCLOBEMIDE], the concentration at half-maximal activity (AC50) was above 30 µM in experiment [1], above 10 µM in experiment [2], above 10 µM at D(1A) dopamine receptor and above 10 µM in experiment [3].

Take `CCCc1nc(C(C)(C)O)c(C(=O)OCc2oc(=O)oc2C)n1Cc1ccc(-c2ccccc2-c2nnn[nH]2)cc1` [OLMESARTAN MEDOXOMIL]: the AC50 in experiment [1] is above 10 µM; on Endothelin-1 receptor, above 50 µM; in experiment [2], above 10 µM; on D(1A) dopamine receptor it was above 10 µM; in experiment [3], above 10 µM.

On to `N#Cc1ccc([C@H]2CCc3cncn32)c(F)c1` [OSILODROSTAT], for which the AC50 (in experiment [1]; at Endothelin-1 receptor; in experiment [3]) was above 10 µM in each case.

On to `CCCC(C)C1(CC)C(=O)NC(=O)NC1=O` (centres undefined) [PENTOBARBITAL], for which the AC50 in experiment [1] is above 30 µM; in experiment [2], above 10 µM; on D(1A) dopamine receptor, above 30 µM; in experiment [3], above 10 µM.

As to `CC[C@@H]1C(=O)OC[C@@H]1Cc1cncn1C` [PILOCARPINE], the AC50 was above 30 µM in experiment [1] and above 10 µM at D(1A) dopamine receptor.

Consider `C#C[C@]1(O)CC[C@H]2[C@@H]3CCc4cc(OC5CCCC5)ccc4[C@H]3CC[C@@]21C` [QUINESTROL], for which the AC50 in experiment [1] is above 30 µM; in experiment [2] it was above 10 µM; at D(1A) dopamine receptor, above 10 µM; in experiment [3], above 10 µM.

Turning to `CN1C(=O)C(O)N=C(c2ccccc2)c2cc(Cl)ccc21` (centres undefined) [TEMAZEPAM], the AC50 in experiment [1] was above 30 µM; on Endothelin-1 receptor, above 30 µM; in experiment [2], above 10 µM; on D(1A) dopamine receptor, above 10 µM; in experiment [3] it was above 10 µM.

Turning to `CCN(CC)C(=O)N[C@H]1C[C@@H]2c3cccc4[nH]cc(c34)C[C@H]2N(C)C1` [TERGURIDE], the AC50 in experiment [1] is 0.21 µM; at Endothelin-1 receptor, above 30 µM; on D(1A) dopamine receptor, 0.049 µM; in experiment [3] it was 3.2 µM.

`C/C(O)=C(\C#N)C(=O)Nc1ccc(C(F)(F)F)cc1` [TERIFLUNOMIDE]: the AC50 (in experiment [1]; on Endothelin-1 receptor; in experiment [2]; on D(1A) dopamine receptor; in experiment [3]) was above 30 µM each time.

Take `CC(CC(c1ccccc1)c1ccccc1)NC(C)(C)C` (centres undefined) [TERODILINE]: the concentration at half-maximal activity (AC50) (in experiment [1]; at Endothelin-1 receptor; at D(1A) dopamine receptor; in experiment [3]) was above 30 µM throughout.

For the molecule `CN1CCN(CC/C=C2/c3ccccc3Sc3ccc(S(=O)(=O)N(C)C)cc32)CC1` [THIOTHIXENE], the AC50 in experiment [1] is 2.8 µM; on Endothelin-1 receptor it was above 30 µM; at D(1A) dopamine receptor, above 30 µM; in experiment [3] it was above 10 µM.

Regarding `CC(=O)O[C@H]1C[C@@H]2CC[C@@H]3[C@H](CC[C@@]4(C)[C@H]3C[C@H]([N+]3(C)CCCCC3)[C@@H]4OC(C)=O)[C@@]2(C)C[C@@H]1N1CCCCC1` [VECURONIUM], the AC50 (in experiment [1]; at Endothelin-1 receptor; at D(1A) dopamine receptor; in experiment [3]) was above 30 µM throughout.
